{
  "source": "patent US8664236B2",
  "about": "“1H-pyrrolo[2,3 b]-pyridine derivatives” (Merck Patent GmbH, priority 2010, dated 2014)",
  "key": {"[1]": {"target": "PDK1 (His6-PDK1(Δ1-50)) (Homo sapiens (Human), UniProt O15530)", "sequence (O15530 51-556)": "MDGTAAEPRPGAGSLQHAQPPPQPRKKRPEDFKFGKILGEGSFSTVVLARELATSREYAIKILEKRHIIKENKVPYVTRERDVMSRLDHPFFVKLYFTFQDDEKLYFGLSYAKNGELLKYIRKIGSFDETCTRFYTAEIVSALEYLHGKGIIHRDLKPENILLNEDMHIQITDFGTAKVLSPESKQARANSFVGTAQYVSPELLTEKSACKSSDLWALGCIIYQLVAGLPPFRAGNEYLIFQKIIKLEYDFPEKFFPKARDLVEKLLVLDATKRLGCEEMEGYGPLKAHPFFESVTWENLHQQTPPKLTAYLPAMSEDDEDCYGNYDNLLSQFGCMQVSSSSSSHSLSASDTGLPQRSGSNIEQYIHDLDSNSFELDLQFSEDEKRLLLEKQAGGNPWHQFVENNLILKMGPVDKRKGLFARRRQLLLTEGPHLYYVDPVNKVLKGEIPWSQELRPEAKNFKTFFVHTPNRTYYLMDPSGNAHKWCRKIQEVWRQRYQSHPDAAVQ", "experiment": "Test for the inhibition of PDK1 (enzymatic, flashplate, 33P-ATP)", "type": "biochemical", "description": "4. Test for the Inhibition of PDK1\nThe experimental batches are carried out in a flashplate system with 384 wells/microtitration plate.\nThe test substances are employed in corresponding concentrations (if desired in a dilution series). The control is carried out without test substance. The reaction is stopped using standard methods and washed. The activity of the kinase is measured via the incorporated radioactivity in top count. In order to determine the non-specific kinase reaction (blank value), the experimental batches are carried out in the presence of 100 nM staurosporine.\nThe radioactivity (decompositions per minute) of the blank value (no use of test substance in the presence of staurosporine) is subtracted from all other radioactivity values. The controls (kinase activity without test substance) are set equal to 100 percent and all other radioactivity values (after subtracting the blank value) are expressed set in relation thereto (for example in % of the control)."}, "[2]": {"experiment": "Solubility", "type": "physicochemical", "settings": "Table I"}, "[3]": {"target": "PDK1 kinase in PC3 cells (PKB phosphorylation at Thr 308) (Homo sapiens (Human), UniProt O15530)", "sequence (O15530 whole entry)": "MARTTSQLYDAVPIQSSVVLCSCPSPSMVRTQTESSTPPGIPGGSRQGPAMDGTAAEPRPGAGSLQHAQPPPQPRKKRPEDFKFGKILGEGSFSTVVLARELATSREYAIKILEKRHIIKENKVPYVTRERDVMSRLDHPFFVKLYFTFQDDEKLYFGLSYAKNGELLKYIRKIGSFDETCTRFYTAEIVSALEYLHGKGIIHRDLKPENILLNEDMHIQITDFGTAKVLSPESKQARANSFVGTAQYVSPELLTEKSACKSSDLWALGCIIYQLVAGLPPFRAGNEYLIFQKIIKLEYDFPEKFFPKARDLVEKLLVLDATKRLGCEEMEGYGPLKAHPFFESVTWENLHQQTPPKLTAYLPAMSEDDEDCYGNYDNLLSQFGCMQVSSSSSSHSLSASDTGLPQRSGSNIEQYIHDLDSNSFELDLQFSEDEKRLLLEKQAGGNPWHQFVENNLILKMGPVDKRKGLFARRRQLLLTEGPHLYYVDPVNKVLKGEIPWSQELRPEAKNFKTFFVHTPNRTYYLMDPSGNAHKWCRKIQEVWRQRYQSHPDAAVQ", "experiment": "Cellular testing of PDK1 kinase inhibitors in PC3 cells (Luminex, phospho-T308-PKB)", "type": "cell-based", "settings": "for pIC50: PKB phosphorylation at Thr 308 in PC3 cells, read-out: cellular IC50; for IC50: Table I comparison, read-out: PDK1 inhibition assay cellular IC50", "description": "Method for the Cellular Testing of PDK1 Kinase Inhibitors in PC3 Cells\nThe cellular assay for the determination of the PDK1 kinase activity is carried out as a Luminex assay in the 96-well format. PC3 cells are sown at 20,000 cells per well in 100 μl of medium (45% of […]/45% of Ham's F12/10% of FCS) and incubated on the following day for 30 min with a serial dilution of the test substance (7 concentrations) under serum-free conditions. The cells are subsequently lysed using 90 μl of lysis buffer (20 mM tris/HCl pH 8.0, 150 mM NaCl, 1% of NP40, 10% of glycerol, 1% of phosphatase inhibitor I, 1% of phosphatase inhibitor II, 0.1% of protease inhibitor cocktail III, 0.01% of benzonase) per well, and the lysates are separated off from insoluble cell constituents by means of centrifugation through a 96-well filter plate (0.65 μm). The lysates are incubated overnight at 4° C. with shaking with Luminex beads to which an anti-total PKB antibody is coupled. The detection is carried out on the following day by addition of a phospho-T308-PKB antibody and a species-specific […] secondary antibody. The detection of phospho-T308-PKB is carried out by measurement in a Luminex100 instrument by determination of 100 events per cavity in a measurement time of 60 sec. […] The values of the batches treated with test substance are calculated therefrom as percentage of control, and IC50 values are determined by means of RS1."}, "[4]": {"settings": "Table I comparison, read-out: PDK1 inhibition assay enzymatic IC50"}, "[5]": {"settings": "enzymatic PDK1 inhibition assay, read-out: enzymatic IC50"}},
  "note": "pIC50: −log10 of the molar value. Like-named read-outs stand apart in the source and are kept apart here.",
  "data": [
    {"smiles": "Cn1cc(-c2cnc3[nH]cc(-c4cc(N(CCO)c5ccccc5)nc(N)n4)c3c2)cn1", "note": "[A4, 2-({2-Amino-6-[5-(1-methyl-1H-pyrazol-4-yl)-1H-pyrrolo[2,3-b]-pyridin-3-yl]pyrimidin-4-yl}phenylamino)ethanol]", "values": [
      {"measurement": "pIC50", "setting": "[1]; [4]", "result": 7.89},
      {"measurement": "pIC50", "setting": "[1]; [5]", "result": 7.89},
      {"measurement": "solubility", "setting": "[2]", "result": 1, "unit": "µg/mL"},
      {"measurement": "pIC50", "setting": "[3]", "result": 6.60},
      {"measurement": "IC50", "setting": "[3]; values in nM", "result": 250, "unit": "nM"}
    ]},
    {"smiles": "Cn1cc(-c2cnc3[nH]cc(-c4cc(C5(c6ccccc6)CCCC5)nc(N)n4)c3c2)cn1", "note": "[A6, 4-[5-(1-Methyl-1H-pyrazol-4-yl)-1H-pyrrolo[2,3-b]pyridin-3-yl]-6-(1-phenylcyclopentyl)pyrimidin-2-ylamine]", "values": [
      {"measurement": "pIC50", "setting": "[1]; [4]", "result": 6.89},
      {"measurement": "pIC50", "setting": "[1]; [5]", "result": 6.89},
      {"measurement": "solubility", "setting": "[2]", "result": "< 1", "unit": "µg/mL"},
      {"measurement": "pIC50", "setting": "[3]", "result": 6.20},
      {"measurement": "IC50", "setting": "[3]; values given in μM", "result": 625, "unit": "nM"}
    ]},
    {"smiles": "Cn1cc(-c2cnc3[nH]cc(-c4cc(N5CCOc6ccccc65)nc(N)n4)c3c2)cn1", "note": "[A27, 4-(2,3-Dihydrobenzo-1,4-oxazin-4-yl)-6-[5-(1-methyl-1H-pyrazol-4-yl)-1H-pyrrolo[2,3-b]pyridin-3-yl]pyrimidin-2-ylamine]", "values": [
      {"measurement": "pIC50", "setting": "[1]; [5]", "result": 8.30},
      {"measurement": "pIC50", "setting": "[3]", "result": "< 5.00"}
    ]},
    {"smiles": "Cn1cc(-c2cnc3[nH]cc(-c4cc(N(CCN5CCOCC5)c5cccc(F)c5)nc(N)n4)c3c2)cn1", "note": "[A28, N4-(3-Fluorophenyl)-6-[5-(1-methyl-1H-pyrazol-4-yl)-1H-pyrrolo[2,3-b]pyridin-3-yl]-N4-(2-morpholin-4-ylethyl)pyrimidine-2,4-diamine]", "values": [
      {"measurement": "pIC50", "setting": "[1]; [5]", "result": 7.05},
      {"measurement": "pIC50", "setting": "[3]", "result": 5.01}
    ]},
    {"smiles": "COCCN(c1cc(-c2c[nH]c3ncc(-c4cnn(C)c4)cc23)nc(N)n1)c1ccccc1Cl", "note": "[A29, N4-(2-Chlorophenyl)-N4-(2-methoxyethyl)-6-[5-(1-methyl-1H-pyrazol-4-yl)-1H-pyrrolo[2,3-b]pyridin-3-yl]pyrimidine-2,4-diamine]", "values": [
      {"measurement": "pIC50", "setting": "[1]; [5]", "result": 8.15},
      {"measurement": "pIC50", "setting": "[3]", "result": 7.59}
    ]},
    {"smiles": "Cn1cc(-c2cnc3[nH]cc(-c4cc(N(CCCN)c5ccccc5)nc(N)n4)c3c2)cn1", "note": "[A31, N4-(3-Aminopropyl)-6-[5-(1-methyl-1H-pyrazol-4-yl)-1H-pyrrolo[2,3-b]pyridin-3-yl]-N4-phenylpyrimidine-2,4-diamine]", "values": [
      {"measurement": "pIC50", "setting": "[1]; [4]", "result": 8.06},
      {"measurement": "pIC50", "setting": "[1]; [5]", "result": 8.06},
      {"measurement": "pIC50", "setting": "[3]", "result": 5.17},
      {"measurement": "IC50", "setting": "[3]; values given in μM", "result": 6800, "unit": "nM"}
    ]},
    {"smiles": "Cn1cc(-c2cnc3[nH]cc(-c4cc(C5(c6ccccc6F)CC5)nc(N)n4)c3c2)cn1", "note": "[A42, 4-[1-(2-Fluorophenyl)cyclopropyl]-6-[5-(1-methyl-1H-pyrazol-4-yl)-1H-pyrrolo[2,3-b]pyridin-3-yl]pyrimidin-2-ylamine]", "values": [
      {"measurement": "pIC50", "setting": "[1]; [5]", "result": 7.34},
      {"measurement": "pIC50", "setting": "[3]", "result": 7.70}
    ]},
    {"smiles": "CC(=O)NCCCN(c1ccccc1)c1cc(-c2c[nH]c3ncc(-c4cnn(C)c4)cc23)nc(N)n1", "note": "[A43, N-[3-({2-Amino-6-[5-(1-methyl-1H-pyrazol-4-yl)-1H-pyrrolo-[2,3-b]pyridin-3-yl]pyrimidin-4-yl}phenylamino)propyl]acetamide]", "values": [
      {"measurement": "pIC50", "setting": "[1]; [4]", "result": 7.66},
      {"measurement": "pIC50", "setting": "[1]; [5]", "result": 7.66},
      {"measurement": "pIC50", "setting": "[3]", "result": 6.37},
      {"measurement": "IC50", "setting": "[3]; values in nM", "result": 430, "unit": "nM"}
    ]},
    {"smiles": "CC(C)n1cc(-c2cnc3[nH]cc(-c4cc(C(C)(O)c5ccccc5)nc(N)n4)c3c2)cn1", "note": "(stereo not shown) [reference compound]", "values": [
      {"measurement": "pIC50", "setting": "[1]; [4]", "result": 7.27},
      {"measurement": "solubility", "setting": "[2]", "result": "< 1", "unit": "µg/mL"},
      {"measurement": "IC50", "setting": "[3]; values in nM", "result": 492, "unit": "nM"}
    ]},
    {"smiles": "CC(C)Cn1cc(-c2cnc3[nH]cc(-c4cc(CCCN)nc(N)n4)c3c2)cn1", "note": "[reference compound]", "values": [
      {"measurement": "pIC50", "setting": "[1]; [4]", "result": 7.96},
      {"measurement": "IC50", "setting": "[3]; values given in μM", "result": "> 30000", "unit": "nM"}
    ]},
    {"smiles": "CC(=O)NCCCc1cc(-c2c[nH]c3ncc(-c4cnn(C(C)C)c4)cc23)nc(N)n1", "note": "[reference compound]", "values": [
      {"measurement": "pIC50", "setting": "[1]; [4]", "result": 6.62},
      {"measurement": "solubility", "setting": "[2]", "result": "> 46", "unit": "µg/mL"},
      {"measurement": "IC50", "setting": "[3]; values given in μM", "result": "> 30000", "unit": "nM"}
    ]},
    {"smiles": "CC(C)n1cc(-c2cnc3[nH]cc(-c4cc(C5(O)CCCC5)nc(N)n4)c3c2)cn1", "note": "[reference compound]", "values": [
      {"measurement": "pIC50", "setting": "[1]; [4]", "result": 7.21},
      {"measurement": "solubility", "setting": "[2]", "result": 8, "unit": "µg/mL"},
      {"measurement": "IC50", "setting": "[3]; values given in μM", "result": 3500, "unit": "nM"}
    ]}
  ]
}
